# Laboratory results as given in PubChem BioAssay AID1996.
# Settings: buffer; pH 7.4; 200.0 µM
row,Structure (SMILES),solubility kinetic
1,Cc1cccc(C(=O)Nc2cc(NC(=O)c3cccs3)ccc2C)c1,2 µg/mL
2,Cc1cc(C(=O)COc2cccc([N+](=O)[O-])c2)c(C)n1C1CC1,6.2 µg/mL
3,COC(=O)CN1C(=O)Nc2ccc(Cl)cc2C1c1ccccc1 (stereo unspecified),2.1 µg/mL
4,CC1(C)Cc2nc(NC3CCCCC3)c(C#N)cc2CO1,1.7 µg/mL
5,CC(C)(C)c1cc(CCC(=O)NCc2cccnc2)cc(C(C)(C)C)c1O,36.5 µg/mL
6,Cc1ccccc1SCC(=O)NCC(c1ccc(F)cc1)N1CCOCC1 (stereo unspecified),> 58.3 µg/mL
7,Cc1cc(NC(=O)c2ccccc2C)no1,> 32.4 µg/mL
8,CNC(=O)COc1ccc(Nc2nnc(C)c3ccccc23)cc1.Cl,> 53.8 µg/mL
9,O=S(=O)(c1ccc(=S)[nH]c1)N1CCCC1,> 36.6 µg/mL
10,CN1C(=O)N(C)c2cccc3cccc1c23,0.8 µg/mL
11,COc1cccc(NC(=O)CNC(=O)c2ccc(C)o2)c1,> 43.2 µg/mL

# Other lines, results leading:
row,solubility kinetic,Structure (SMILES)
1,33.8 µg/mL,Fc1cc(Br)cc(F)c1NC(=S)N1CCOCC1
2,10.8 µg/mL,c1ccc2[nH]c(SN3CCOCC3)nc2c1
3,< 0.2 µg/mL,CCc1nc(Nc2cccc(F)c2)c2oc3ccccc3c2n1.Cl
4,1.2 µg/mL,COc1ccc(OCC(=O)O/N=C(\N)c2ccc(OC)cc2)cc1
5,> 57.7 µg/mL,COCCn1c(SCC(=O)NNC(=O)c2ccccc2)nc2ccccc21
